Measured values published in PubChem BioAssay AID328 (DTP/NCI, 2004).
Toxic doses and inconclusive results are not listed. The calls were made as follows: active = survival T/C of 150% or more; inactive = T/C below 125% in these data.

Tested on: BDF1 mice, P388 leukemia ip, median survival T/C
Assay: NCI In Vivo Anticancer Drug Screen. Data for tumor model P388 Leukemia (intraperitoneal) in B6D2F1 (BDF1) mice
Settings: endpoint: median survival time, schedule: Q01DX009 (ip), vehicle: saline, higher = longer survival
Method in brief: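 Antitumour effect was judged in vivo: survival in drug-treated mice, normalised to that of vehicle-dosed controls, gives the reported T/C.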

Measured: T/C

CCC1CC[N-]CC1.CCC1CC[N-]CC1.[Cl][Pt+2]([Cl])([Cl])[Cl]
inactive: dose: 3.12 mg/kg/injection 107 % of control | dose: 6.25 mg/kg/injection 110 % of control | dose: 12.5 mg/kg/injection 110 % of control
